The target of one assay is T1, TMPRSS2 (Homo sapiens, UniProt O15393).
T1 construct: TMPRSS2 (katalytische Domäne exprimiert in E. coli); made in house; host or cells: E. coli
Briefly: Enzyme kinetic determination of inhibition of TMPRSS2 (Ki, Dixon method, chromogenic substrate d-Cyclohexylalanin-Gly-Arg-p-Nitroanilin). The class given is biochemical. As to conditions: TMPRSS2 catalytic domain expressed in E. coli, Tris pH 8.0, room temperature. The text has this: (§1) Die Hemmwirkung der Inhibitoren für HAT (R&D Systems) und TMPRSS2 (katalytische Domäne exprimiert in E. coli) wurden unter Verwendung chromogener Substrate ermittelt. Für HAT wurde d-Cyclohexylalanin-Pro-Arg-7-Aminomethylcoumarin und für TMPRSS2 d-Cyclohexylalanin-Gly-Arg-p-Nitroanilin als Substrat verwendet. Die Bestimmung wurde mit einem Fluoreszenz-Plattenreader Safire^2 der Firma Tecan (λEx = 380 nm, λEm = 460 nm) für HAT und mit einem UV/Vis Plattenreader iEMS Reader MF 1401 der Firma LABSYSTEMS für TMPRSS2 bei 405 nm durchgeführt. Die Messung erfolgte in Tris-Puffer (50 mM Tris pH 9.5, 0,05% Brij 58 und 1 mg/ml bovines serum Albumin für HAT und 50 mM Tris pH 8.0, 0,154 M NaCl für TMPRSS2) auf Mikrotiter Platten bei Raumtemperatur. Die Inhibitorlösungen geeigneter Konzentration wurden in DMSO hergestellt. Im Messansatz wurden zu 2 µl Inhibitorlösung unterschiedlicher Konzentration jeweils 158 µl Puffer und 20 µl Substratlösung geben, und danach die Reaktion durch Zugabe von 20 µl Enzymlösung gestartet. Jeder Inhibitor wurde mit drei verschiedenen Substratkonzentrationen vermessen (50 µM, 100 µM, 200 µM für HAT und 45 µM, 90 µM und 181 µM für TMPRSS2). Die Inhibitorkonzentration wurde mindestens um den Bereich einer Größenordnung variiert und jeweils die steady-state Geschwindigkeit bestimmt. Die Berechnung der Ki-Werte erfolgte mit Hilfe eines Computerprogramms nach der Methode von Dixon.

A further assay concerns the target T2, HAT (Homo sapiens, UniProt O60235).
T2 construct: purchased R&D Systems
T2 sequence (O60235 1-418): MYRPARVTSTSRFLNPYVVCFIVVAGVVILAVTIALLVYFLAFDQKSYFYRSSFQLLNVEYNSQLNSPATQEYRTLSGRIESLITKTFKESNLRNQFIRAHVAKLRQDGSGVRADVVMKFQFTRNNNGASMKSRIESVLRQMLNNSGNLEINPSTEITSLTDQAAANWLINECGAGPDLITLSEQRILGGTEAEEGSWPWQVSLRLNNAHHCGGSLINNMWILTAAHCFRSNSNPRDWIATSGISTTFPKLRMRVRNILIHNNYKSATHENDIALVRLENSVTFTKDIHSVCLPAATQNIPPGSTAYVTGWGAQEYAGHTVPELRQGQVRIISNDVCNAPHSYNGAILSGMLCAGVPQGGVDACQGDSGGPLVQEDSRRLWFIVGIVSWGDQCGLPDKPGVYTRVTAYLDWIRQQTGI
Nature of the assay: Enzyme kinetic determination of inhibition of HAT (Ki, Dixon method, fluorogenic substrate d-Cyclohexylalanin-Pro-Arg-7-Aminomethylcoumarin). As to conditions: HAT (R&D Systems), Tris pH 9.5, room temperature. The class given is biochemical.
Excerpt: as §1

The test system of assay [1] is Influenzavirus-Isolat A/Memphis/14/96 (H1N1). The class given is cell-based. As to conditions: Calu-3-Zellen (endogenous TMPRSS2), 24 h infection.
Another assay concerns the target T3, HAT-Flag (Homo sapiens, UniProt O60235).
T3 construct: made in house; host or cells: MDCK-HAT cells (MDCK stably transfected with pcEFTet-On/NEO and pTRE2pur-HAT-FLAG, doxycycline-inducible); isolated with the FLAG Tagged Protein Immunoprecipitation Kit
T3 sequence (O60235 1-418): T2 sequence (O60235 1-418)
Nature of the assay: Inhibition of affinity-purified HAT-Flag: cleavage of the substrate Boc-Leu-Gly-Arg-AMC. The class given is biochemical. As to conditions: 25 µM Boc-Leu-Gly-Arg-AMC, 2 h, 37° C, pH 7,4. The text has this: Die in MDCK-HAT-Zellen exprimierte Protease HAT besitzt zusätzlich ein C-terminales Flag-Epitop, welches die Affinitätsreinigung der Protease mit Hilfe von anti-FlagM2-Agarose (Sigma-Aldrich) ermöglicht. HAT-Flag liegt nach der Immunpräzipitation als aktive Protease vor. Die enzymatische Aktivität kann mit Hilfe des Fluoreszenzsubstrats Boc-Leu-Gly-Arg-AMC bestimmt werden.
Für Inhibitionsstudien wurde HAT-Flag zunächst mit Hilfe des FLAG®Tagged Protein Immunoprecipitation Kits aus MDCK-HAT-Zellen isoliert. Anschließend wurde die isolierte Protease mit 25 µM Boc-Leu-Gly-Arg-AMC in 50 mM Tris/HCl pH 7,4 in An- oder Abwesenheit der Inhibitoren (Endkonzentrationen 0,1 -10 µM) für 2 h bei 37° C inkubiert. Die Umsetzung des Substrates wurde mit Hilfe eines Fluoreszenz-Spektralphotomers bei 350 nm (Extinktion) sowie 460 nm (Emission) bestimmt. Als Kontrolle diente die Bestimmung der Proteaseaktivität in Abwesenheit eines Inhibitors (entspricht 0% Hemmung). Tabelle 2: Hemmwirkung synthetischer Serinproteasehemmstoffe auf die HAT-katalysierte Spaltung des Substrats Boc-Leu-Gly-Arg-AMC.

The text below walks through data of EP2435064B1, “USE OF HAT INHIBITORS AND TMPRSS2 INHIBITORS AS MEDICAMENTS” (Philipps-Universität Marburg, priority 2009, dated 2010).

Structures are written as SMILES.

T1 sequence (O15393 256-492 limits assumed): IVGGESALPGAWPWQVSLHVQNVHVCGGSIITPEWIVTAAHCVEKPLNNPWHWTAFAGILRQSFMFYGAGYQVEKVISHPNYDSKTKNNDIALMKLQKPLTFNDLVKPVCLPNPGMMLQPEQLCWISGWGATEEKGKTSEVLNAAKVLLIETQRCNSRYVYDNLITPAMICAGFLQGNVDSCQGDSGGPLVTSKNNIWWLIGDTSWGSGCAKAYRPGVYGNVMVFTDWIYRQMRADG

For `N=C(N)c1ccc(CNC(=O)[C@H](CCCCNC(=O)OCc2ccccc2)NC(=O)[C@@H](CC2CCCCC2)NS(=O)(=O)Cc2ccccc2)cc1` [Inhibitor 17], the Ki on TMPRSS2 stood at 84 nM; at HAT, 488 nM.

Compound `N#Cc1ccc(C[C@@H](NS(=O)(=O)Cc2ccccc2)C(=O)N2CCC[C@H]2C(=O)NCc2ccc(C(=N)N)cc2)cc1` [Inhibitor 12] returned a Ki on HAT of 210 nM. In other words, the sub-micromolar range.

In turn, `N=C(N)c1ccc(CNC(=O)[C@@H]2CCCN2C(=O)[C@@H](CCCCN)NS(=O)(=O)Cc2ccccc2)cc1` [Inhibitor 9] yielded a Ki on HAT of 30 nM.

Take `N=C(N)NCCCC[C@@H](NS(=O)(=O)Cc1ccccc1)C(=O)N1CCC[C@H]1C(=O)NCc1ccc(C(=N)N)cc1` [Inhibitor 10]: the affinity at HAT, expressed as Ki, was 13 nM.

`[H]/N=C(\N)c1ccc(CNC(=O)[C@@H]2CCCN2C(=O)[C@@H](Cc2ccccc2)NS(=O)(=O)Cc2ccccc2)cc1` [Inhibitor 6] yielded a Ki on HAT of 66 nM.

On to `N=C(N)NCCC[C@@H](NS(=O)(=O)Cc1ccccc1)C(=O)N1CCC[C@H]1C(=O)NCc1ccc(C(=N)N)cc1` [Inhibitor 1], for which the Ki turned out to be 3 nM at TMPRSS2 and 19 nM at HAT. The “Reduktion der Virusausbreitung” value in assay [1] is listed as “konzentrationsabhängige Reduktion der Virusausbreitung”. Besides, the “Prozent Hemmung (%)” value at HAT-Flag (Inhibitorkonzentration 0,1 µM) is recorded as 22,3%; at HAT-Flag (Inhibitorkonzentration 1 µM), 70,7%; on HAT-Flag (Inhibitorkonzentration 10 µM), 93,1%.

Turning to `N=C(N)c1ccc(CNC(=O)CNC(=O)[C@@H](CO)NS(=O)(=O)Cc2ccccc2)cc1` [Inhibitor 15], at HAT, the affinity corresponds to a Ki of 1840 nM.

Regarding `N=C(N)c1ccc(CNC(=O)[C@H](CO)NC(=O)[C@@H](CO)NS(=O)(=O)Cc2ccccc2)cc1` [Inhibitor 3], in assay [1], the “Reduktion der Virusausbreitung” value is “konzentrationsabhängige Reduktion der Virusausbreitung”. Also, the “Prozent Hemmung (%)” value on HAT-Flag (Inhibitorkonzentration 0,1 µM) is on record as 29,5%; at HAT-Flag (Inhibitorkonzentration 1 µM), 47,1%; at HAT-Flag (Inhibitorkonzentration 10 µM), 80,3%. The compound also came in with a Ki at HAT of 78 nM.

On HAT, `CCCCCCCCCC(=O)NCCCC[C@H](NC(=O)[C@@H](CC1CCCCC1)NS(=O)(=O)Cc1ccccc1)C(=O)NCc1ccc(C(=N)N)cc1` [Inhibitor 16] returned a Ki above 20000 nM.

Regarding `N=C(N)c1ccc(CNC(=O)[C@@H]2CCCN2C(=O)C(CCc2ccccn2)NS(=O)(=O)Cc2ccccc2)cc1` (stereo partly shown) [Inhibitor 11], on HAT, the Ki was found to be 32 nM.

`N=C(N)c1ccc(CNC(=O)[C@@H]2CCCN2C(=O)[C@@H](CCCCNC(=O)OCc2ccccc2)NS(=O)(=O)Cc2ccccc2)cc1` [Inhibitor 8] gave a Ki at HAT of 49 nM.

Take `CCCCCCCCCC(=O)NCCCC[C@H](NC(=O)[C@@H](CCCNC(=N)N)NS(=O)(=O)Cc1ccccc1)C(=O)NCc1ccc(C(=N)N)cc1` [Inhibitor 14]: the inhibition constant (Ki) at TMPRSS2 was 8 nM; on HAT, 160 nM.

For the compound `N=C(N)c1ccc(CNC(=O)[C@H](CCCCNC(=O)OCc2ccccc2)NC(=O)[C@@H](CO)NS(=O)(=O)Cc2ccccc2)cc1` [Inhibitor 4], the affinity at HAT, expressed as Ki, was 48 nM.

For the compound `N=C(N)c1ccc(CNC(=O)CNC(=O)[C@@H](CCCN=C(N)N)NS(=O)(=O)Cc2ccccc2)cc1` [Inhibitor 2], affinity on HAT was put at a Ki of 279 nM. This Ki is about 5.8-fold higher than that of the compound before.

For `N=C(N)c1ccc(CNC(=O)[C@@H]2CCCN2C(=O)[C@@H](CC2CCCCC2)NS(=O)(=O)Cc2ccccc2)cc1` [Inhibitor 5], the Ki came out at 81 nM on TMPRSS2 and 77 nM on HAT. In addition, the “Prozent Hemmung (%)” value at HAT-Flag (Inhibitorkonzentration 0,1 µM) was 27%; at HAT-Flag (Inhibitorkonzentration 1 µM), 47,4%; on HAT-Flag (Inhibitorkonzentration 10 µM) it was 51,5%.

`N=C(N)c1ccc(CNC(=O)[C@@H]2CCCN2C(=O)[C@@H](CCc2ccccc2)NS(=O)(=O)Cc2ccccc2)cc1` [Inhibitor 7]: at HAT, the Ki worked out at 55 nM.
